{"source": "patent US20070232527A1", "about": "“Medicaments and methods combining a HCV protease inhibitor and an AKR competitor” (priority 2005, published 2007)", "key": {"[1]": {"biological_target": "T1, AKR1C3 (Homo sapiens, UniProt P42330)", "T1 sequence (P42330 1-323)": "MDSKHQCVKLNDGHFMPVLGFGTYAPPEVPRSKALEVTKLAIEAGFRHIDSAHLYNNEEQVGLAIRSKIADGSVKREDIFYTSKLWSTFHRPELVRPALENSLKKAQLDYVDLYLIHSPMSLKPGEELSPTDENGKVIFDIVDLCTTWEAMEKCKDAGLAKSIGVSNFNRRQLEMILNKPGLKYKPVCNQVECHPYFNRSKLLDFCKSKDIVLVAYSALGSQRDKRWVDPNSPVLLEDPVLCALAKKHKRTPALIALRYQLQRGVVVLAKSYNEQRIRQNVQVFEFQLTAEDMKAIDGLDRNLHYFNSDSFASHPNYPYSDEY", "details": "tibolone as a substrate; cited from earlier work"}, "[2]": {"biological_target": "T2, AKR1C2 (Homo sapiens, UniProt P52895)", "T2 sequence (P52895 1-323)": "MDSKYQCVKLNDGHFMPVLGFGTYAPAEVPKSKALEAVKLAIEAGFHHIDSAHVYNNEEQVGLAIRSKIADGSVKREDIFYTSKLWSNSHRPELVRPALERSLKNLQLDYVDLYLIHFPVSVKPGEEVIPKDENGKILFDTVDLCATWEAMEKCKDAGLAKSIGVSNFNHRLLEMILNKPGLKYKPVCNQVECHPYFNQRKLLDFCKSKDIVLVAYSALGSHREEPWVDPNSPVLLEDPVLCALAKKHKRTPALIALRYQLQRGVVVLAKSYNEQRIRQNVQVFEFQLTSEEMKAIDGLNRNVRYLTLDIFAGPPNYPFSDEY", "details": "tibolone as a substrate; cited from earlier work"}, "[3]": {"tested_on": "cytosolic enzymes that form the metabolite of Formula Ia", "assay": "in vitro", "details": "monkey"}, "[4]": {"tested_on": "cytosolic enzymes that convert Formula Ia to Formula Ia′", "assay": "in vitro", "details": "human", "quoted_text": "(§3) All incubations contained 3 mM magnesium chloride and NADPH-generating system in 0.5 mL of 50 mM potassium phosphate buffer, pH 7.4. Prior to the addition of drug, incubation mixtures were preincubated for 2 min at 37° C. […] The incubation mixtures were vortexed and centrifuged (˜10,000 g) at 4° C. for 10 min; supernatants were analyzed by HPLC coupled with radiometric detector. Heat activated S9 cofactor or mitochondria were used as control. For LC-MS analysis, supernatants were concentrated in SpeedVac for 3 hrs. Incubation volumes were 0.5 mL and the final concentration of the organic solvents in the incubation system was less than 1% (v/v).\n(§4) The mobile phase consisted of 10 mM ammonium acetate adjusted to pH 7.0 with 1% ammonium hydroxide (A) and 100% methanol (B)."}, "[5]": {"details": "in vivo; cited from earlier work"}, "[6]": {"biological_target": "human liver cytosol", "assay": "Inhibition of metabolism of 14C-Formula Ia to Formula Ia′ in human liver cytosol", "quoted_text": "as §3, §4"}, "[7]": {"tested_on": "human liver cytosol", "assay": "Incubation of Formula Ia or Formula XXVII in human liver cytosol with AKR competitor (LC-MS, M+2 metabolite)", "type": "in vitro ADME", "protocol": "Prior to the addition of drug, the incubation mixture was preincubated for 2 min at 37° C. […] Human liver microsomes and cytosol without NADPH served as negative controls. Parallel incubations with the compound of Formula Ia were used as positive controls. […] All incubations were performed as described previously for human liver cytosols. […] Parallel incubations with the compound of Formula Ia were used as positive controls."}, "[8]": {"assay": "In vivo inhibition study of Formula Ia with AKR competitor diflunisal, plasma PK", "details": "cynomolgus monkeys plasma; as a function of diflunisal dose 0, 62.5, 125, 250 mg", "protocol": "An in vivo study was conducted in cynomolgus monkeys where 200 mg Formula Ia and 0 (control), 62.5, 125, or 250 mg diflunisal (Dolobid) was administered as illustrated below. All six monkeys were first dosed with Formula Ia with blood samples collected over a 12 hr period for plasma pharmacokinetics (PK) of Formula Ia prior to administration of diflunisal (dose-escalation). Four doses of diflunisal were subsequently administered every 12 hr with Formula Ia administered at each 4th diflunisal dose after which blood samples were collected for PK assessment of Formula Ia. The following chart summarizes the timing of Formula Ia and diflunisal administration."}, "[9]": {"biological_target": "T2, AKR1C2", "assay": "Incubation with S9 fraction of recombinant human AKR1C2", "type": "in vitro ADME", "set-up": "made in house", "details": "20 μM 14C-radiolabeled compound; S9 2.5 mg protein/mL; NADPH", "protocol": "(§1) Recombinant human AKRs (AKR1C2, AKR1C3 and AKR1C4) were grown, sonicated and centrifuged at ˜10,000 g to obtain S9 fractions. Incubations of ^14C-radiolabeled compound of Formula Ia, ^14C-radiolabeled compound of Formula Ib and ^14C-radiolabeled compound of Formula Ic (all at 20 μM) with S9-fractions from three recombinant human AKRs (2.5 mg protein/mL) were conducted as described above. [drawing 161]\n(§2) The samples were analyzed by HPLC-coupled with radiometric detector and confirmed by LC-MS."}, "[10]": {"biological_target": "T1, AKR1C3", "assay": "Incubation with S9 fraction of recombinant human AKR1C3", "type": "in vitro ADME", "set-up": "made in house", "details": "20 μM 14C-radiolabeled compound; S9 2.5 mg protein/mL; NADPH", "protocol": "as §1, §2"}, "[11]": {"assay": "Clinical study of the effect of ibuprofen on pharmacokinetics of Formula Ia", "type": "in vivo", "details": "human, single 400 mg dose PO fasted, alone or with ibuprofen 600 mg TID; for AUC: plasma, po, 400 mg", "protocol": "The study was conducted in an open-label, randomized, 3-period, 2-sequence crossover manner (FIG. 6). During Period 1, all 12 subjects were administered a single 400 mg dose of Formula Ia. During Periods 2 and 3, subjects received multiple doses of ibuprofen (600 mg TID) in a randomized sequence. The ibuprofen was administered beginning on Day 1 (3 days prior to Formula Ia administration) and continued through Day 6. A single dose of Formula Ia was administered on Day 4 (2 hours after administration of the AM dose of ibuprofen). Plasma samples for pharmacokinetic and metabolite analyses of Formula Ia was collected at predose (0 hour), 0.5, 1, 1.5, 2, 2.5, 3, 4, 5, 6, 7, 8, 9, 10, 12, 24, 36, 48, and 72 hour postdose for each period. (The 48 and 72 hour postdose samples for Period 1 was collected in an outpatient setting). In Periods 2 and 3, additional blood samples were collected immediately prior to dosing of the Formula Ia on Day 4 and two hours post ibuprofen administration on Day 5 for determination of ibuprofen concentration.\nTreatment A: Formula Ia (4×100 mg capsules); single dose, PO following an overnight fast, administered on Day 1 or Period 1.\nTreatment C: Ibuprofen 600 mg; PO, TID from Day 1 to Day 6 Formula Ia (4×100 mg capsules); single dose, PO following an overnight fast, administered on Day 4 (2 hours after the AM ibuprofen dose).\nSubjects received a single dose of Formula Ia on Day 1 of Period 1. In Period 2 and Period 3, subjects were treated for 6 days with ibuprofen and received a single dose of Formula Ia on Day 4 of each period. There were at least 7 days between administration of Formula Ia in Period 1 and Period 2 and at least 14 days between administration of Formula Ia in Period 2 and 3.\nThe proportion of subjects with plasma concentrations above the in vitro IC50 and IC90 for the HCV replicon at each time point was determined. This plasma concentration data was used to estimate the following primary pharmacokinetic variables for the determination of bioavailability comparisons: • AUC—Area under the plasma concentration-time. • Cmax—Maximum observed plasma concentration. • Tmax—Time to maximum observed plasma concentration. • t1/2—Terminal phase half-life."}, "[12]": {"tested_on": "Human liver S9", "assay": "Inhibition of metabolism of 14C-Formula Ia to Formula Ia′ in human liver S9", "type": "in vitro ADME", "details": "S9; concentration not given"}}, "note": "pIC50: −log10 of the molar value. Like-named read-outs stand apart in the source and are kept apart here."}
{"molecule": "CC(CCC(=O)O)C1CCC2C3C(O)CC4CC(O)CCC4(C)C3CCC12C", "note": "(stereo not drawn) [5beta-cholanic acid 3alpha, 7-alpha-diol]", "values": [{"measurement": "pIC50", "setting": "[1]", "result": 4.13}, {"measurement": "pIC50", "setting": "[2]", "result": 6.68}]}
{"molecule": "O=C(O)c1cc(-c2ccc(F)cc2F)ccc1O", "note": "[Diflunisal]", "values": [{"measurement": "pIC50", "setting": "[3]", "result": 4.96}, {"measurement": "IC50 at 120 min", "setting": "[4]; pH 7.4", "result": 1, "unit": "µg/mL"}, {"measurement": "inhibition at 2 h, 200 µM", "setting": "[4]; pH 7.4, % of Inhibition on Metabolite Formation of Compound Formula Ia", "result": 89.4, "unit": "%"}, {"measurement": "Vdss", "setting": "[5]", "result": 0.1, "unit": "L/kg"}, {"measurement": "protein binding", "setting": "[5]", "result": "about 99%"}, {"measurement": "Ki", "setting": "[6]; human cytosol, assuming the liver to plasma ratio equals 1", "result": 0.5, "unit": "µg/mL"}]}
{"molecule": "CC(C)(C)NC(=O)N[C@H](C(=O)N1C[C@H]2[C@@H]([C@H]1C(=O)NC(CC1CCC1)C(=O)C(N)=O)C2(C)C)C(C)(C)C", "note": "(stereo partly drawn) [Formula Ia, (1R,5S)—N-[3-Amino-1-(Cyclobutylmethyl)-2,3-Dioxopropyl]-3-[2(S)-[[[(1,1-Dimethylethyl)Amino]Carbonyl]Amino]-3,3-Dimethyl-1-Oxobutyl]-6,6-Dimethyl-3-Azabicyclo[3.1.0]Hexan-2(S)-Carboxamide]", "values": [{"measurement": "1ST PARENT PEAK AREA", "setting": "[7]; HL Cytosol w/ NADPH + 50 uM Mefenamic acid", "result": "6.19E+07"}, {"measurement": "1ST PARENT PEAK AREA", "setting": "[7]; HL Cytosol w/ NADPH + 100 uM Flufenamic acid", "result": "6.33E+07"}, {"measurement": "1ST PARENT PEAK AREA", "setting": "[7]; HL Cytosol w/ NADPH + 100 uM Phenolphthalein", "result": "6.23E+07"}, {"measurement": "1ST PARENT PEAK AREA", "setting": "[7]; HL Cytosol w/ NADPH + 200 uM Diflunisal", "result": "6.10E+07"}, {"measurement": "1ST PARENT PEAK AREA", "setting": "[7]; HL Cytosol w/ NADPH Vehicle Control (no inhibitor)", "result": "3.95E+07"}, {"measurement": "1ST PARENT PEAK AREA", "setting": "[7]; HL Cytosol w/o NADPH, 20 μM, 60 min", "result": "7.41E+07"}, {"measurement": "AUC ratio (Formula Ia′ to AUC for the compound)", "setting": "[8]", "result": "decline"}, {"measurement": "metabolism by recombinant AKR1C2", "setting": "[9]", "result": "yielded compound of Formula Ia′"}, {"measurement": "metabolism by recombinant AKR1C3", "setting": "[10]", "result": "yielded compound of Formula Ia′"}, {"measurement": "AUC", "setting": "[11]; read-out: AUC(all), Mean (% CV)", "result": 2040, "unit": "ng·h/mL"}, {"measurement": "AUC", "setting": "[11]; read-out: AUC(l), Mean (% CV)", "result": 2070, "unit": "ng·h/mL"}, {"measurement": "AUC(0-t)", "setting": "[11]; plasma Formula Ia, read-out: AUC(last), Mean (% CV)", "result": 2000, "unit": "ng·h/mL"}, {"measurement": "Cmax", "setting": "[11]; plasma Formula Ia, read-out: Cmax, Mean (% CV)", "result": 571, "unit": "ng/mL"}, {"measurement": "MRT", "setting": "[11]; plasma Formula Ia, read-out: MRT(l), Mean (% CV)", "result": 6.57, "unit": "h"}, {"measurement": "Tmax", "setting": "[11]; plasma Formula Ia, read-out: Tmax (median)", "result": 1.75, "unit": "h"}, {"measurement": "half-life", "setting": "[11]; plasma Formula Ia, read-out: t1/2, Mean (% CV) (converted)", "result": 9.11, "unit": "h"}]}
{"molecule": "O=[N+]([O-])c1ccc(OP(=O)(O)Oc2ccc([N+](=O)[O-])cc2)cc1", "note": "[BNPP, bis(4-nitrophenyl)-phosphate]", "values": [{"measurement": "inhibited formation of the compound of Formula Ia′", "setting": "[12]", "result": 57.4, "unit": "%"}, {"measurement": "% Inhibition on Metabolite Formation of Compound Formula Ia", "setting": "[6]; Table 4, human liver cytosol, inhibitor 1000 μM, 2 hr incubation", "result": 63.4, "unit": "%"}, {"measurement": "inhibited formation of the compound of Formula Ia′", "setting": "[6]; cytosol, concentration not given", "result": 63.4, "unit": "%"}]}
